Source: PubChem BioAssay (NCI)
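At the GI50, growth is halved. TGI: concentration producing complete growth inhibition.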

How the values were obtained:
Assay in all cases: growth of human tumour cells (NCI), 384-well format
NCI-H23 lung = system: NCI-H23 lung
SNB-19 CNS = system: SNB-19 CNS
A549 NSCLC = system: A549 NSCLC
HS 578T breast = system: HS 578T breast
KM12 colon = system: KM12 colon
NCI-H460 NSCLC = system: NCI-H460 NSCLC
NCI/ADR-RES ovarian = system: NCI/ADR-RES ovarian
EKVX NSCLC = system: EKVX NSCLC
OVCAR-3 ovarian = system: OVCAR-3 ovarian
SK-OV-3 ovarian = system: SK-OV-3 ovarian
SW-620 colon = system: SW-620 colon
MOLT-4 leukemia = system: MOLT-4 leukemia
M14 melanoma = system: M14 melanoma
COLO 205 colon = system: COLO 205 colon
PC-3 prostate = system: PC-3 prostate
SK-MEL-5 melanoma = system: SK-MEL-5 melanoma
HCT-116 colon = system: HCT-116 colon
HCC-2998 colon = system: HCC-2998 colon
OVCAR-8 ovarian = system: OVCAR-8 ovarian
HT29 colon = system: HT29 colon
BT-549 breast = system: BT-549 breast
UACC-62 melanoma = system: UACC-62 melanoma
ACHN renal = system: ACHN renal
OVCAR-4 ovarian = system: OVCAR-4 ovarian
SK-MEL-2 melanoma = system: SK-MEL-2 melanoma
NCI-H322M lung = system: NCI-H322M lung
SF-539 CNS = system: SF-539 CNS
RXF 393 renal = system: RXF 393 renal
K-562 leukemia = system: K-562 leukemia
NCI-H226 lung = system: NCI-H226 lung
HL-60(TB) leukemia = system: HL-60(TB) leukemia
LOX IMVI melanoma = system: LOX IMVI melanoma
U251 glioblastoma = system: U251 glioblastoma
MALME-3M melanoma = system: MALME-3M melanoma
CCRF-CEM leukemia = system: CCRF-CEM leukemia
MCF7 breast = system: MCF7 breast
SF-268 CNS = system: SF-268 CNS
IGROV1 ovarian = system: IGROV1 ovarian
SK-MEL-28 melanoma = system: SK-MEL-28 melanoma
MDA-MB-468 breast = system: MDA-MB-468 breast
RPMI-8226 leukemia = system: RPMI-8226 leukemia
786-0 renal = system: 786-0 renal
SNB-75 CNS = system: SNB-75 CNS
UACC-257 melanoma = system: UACC-257 melanoma
DU-145 prostate = system: DU-145 prostate
TK-10 renal = system: TK-10 renal
MDA-MB-435 melanoma = system: MDA-MB-435 melanoma
HCT-15 colon = system: HCT-15 colon
NCI-H522 lung = system: NCI-H522 lung
SF-295 CNS = system: SF-295 CNS
HOP-62 NSCLC = system: HOP-62 NSCLC
CAKI-1 renal = system: CAKI-1 renal
A498 renal = system: A498 renal
SN12C renal = system: SN12C renal
HOP-92 NSCLC = system: HOP-92 NSCLC

SMILES: Cc1ccc(S(=O)(=O)Oc2ccc3sc4c(CO)ccc(NCCN(C)C)c4c(=O)c3c2)cc1
- GI50 (NCI-H23 lung): 2.03 µM
- TGI (NCI-H23 lung): 3.46 µM
- GI50 (SNB-19 CNS): 2.21 µM
- TGI (SNB-19 CNS): 3.69 µM
- GI50 (A549 NSCLC): 1.84 µM
- TGI (A549 NSCLC): 3.28 µM
- GI50 (HS 578T breast): 2.01 µM
- TGI (HS 578T breast): 3.45 µM
- GI50 (KM12 colon): 1.87 µM
- TGI (KM12 colon): 3.3 µM
- GI50 (NCI-H460 NSCLC): 1.9 µM
- TGI (NCI-H460 NSCLC): 3.34 µM
- GI50 (NCI/ADR-RES ovarian): 2.06 µM
- TGI (NCI/ADR-RES ovarian): 3.5 µM
- GI50 (EKVX NSCLC): 1.88 µM
- TGI (EKVX NSCLC): 3.3 µM
- GI50 (OVCAR-3 ovarian): 1.97 µM
- TGI (OVCAR-3 ovarian): 3.39 µM
- GI50 (SK-OV-3 ovarian): 1.94 µM
- TGI (SK-OV-3 ovarian): 3.38 µM
- GI50 (SW-620 colon): 1.84 µM
- TGI (SW-620 colon): 3.27 µM
- GI50 (MOLT-4 leukemia): 1.79 µM
- TGI (MOLT-4 leukemia): 3.18 µM
- GI50 (M14 melanoma): 2.16 µM
- TGI (M14 melanoma): 3.61 µM
- GI50 (COLO 205 colon): 2.14 µM
- TGI (COLO 205 colon): 3.6 µM
- GI50 (PC-3 prostate): 2.01 µM
- TGI (PC-3 prostate): 3.45 µM
- GI50 (SK-MEL-5 melanoma): 1.64 µM
- TGI (SK-MEL-5 melanoma): 3.02 µM
- GI50 (HCT-116 colon): 2.14 µM
- TGI (HCT-116 colon): 3.62 µM
- GI50 (HCC-2998 colon): 1.94 µM
- TGI (HCC-2998 colon): 3.36 µM
- GI50 (OVCAR-8 ovarian): 1.63 µM
- TGI (OVCAR-8 ovarian): 3.02 µM
- GI50 (HT29 colon): 1.8 µM
- TGI (HT29 colon): 3.21 µM
- GI50 (BT-549 breast): 1.89 µM
- TGI (BT-549 breast): 3.31 µM
- GI50 (UACC-62 melanoma): 2.1 µM
- TGI (UACC-62 melanoma): 3.56 µM
- GI50 (ACHN renal): 1.89 µM
- TGI (ACHN renal): 3.33 µM
- GI50 (OVCAR-4 ovarian): 2.24 µM
- TGI (OVCAR-4 ovarian): 3.7 µM
- GI50 (SK-MEL-2 melanoma): 2.07 µM
- TGI (SK-MEL-2 melanoma): 3.51 µM
- GI50 (NCI-H322M lung): 2.12 µM
- TGI (NCI-H322M lung): 3.57 µM
- GI50 (SF-539 CNS): 2.08 µM
- TGI (SF-539 CNS): 3.54 µM
- GI50 (RXF 393 renal): 1.99 µM
- TGI (RXF 393 renal): 3.42 µM
- GI50 (K-562 leukemia): 1.91 µM
- TGI (K-562 leukemia): 3.33 µM
- GI50 (NCI-H226 lung): 1.47 µM
- TGI (NCI-H226 lung): 2.8 µM
- GI50 (HL-60(TB) leukemia): 1.59 µM
- TGI (HL-60(TB) leukemia): 2.95 µM
- GI50 (LOX IMVI melanoma): 1.71 µM
- TGI (LOX IMVI melanoma): 3.11 µM
- GI50 (U251 glioblastoma): 2.22 µM
- TGI (U251 glioblastoma): 3.7 µM
- GI50 (MALME-3M melanoma): 2.15 µM
- TGI (MALME-3M melanoma): 3.61 µM
- GI50 (CCRF-CEM leukemia): 1.62 µM
- TGI (CCRF-CEM leukemia): 2.99 µM
- GI50 (MCF7 breast): 1.72 µM
- TGI (MCF7 breast): 3.11 µM
- GI50 (SF-268 CNS): 2.2 µM
- TGI (SF-268 CNS): 3.66 µM
- GI50 (IGROV1 ovarian): 1.79 µM
- TGI (IGROV1 ovarian): 3.18 µM
- GI50 (SK-MEL-28 melanoma): 2.16 µM
- TGI (SK-MEL-28 melanoma): 3.62 µM
- GI50 (MDA-MB-468 breast): 3.82 µM
- TGI (MDA-MB-468 breast): 5.27 µM
- GI50 (RPMI-8226 leukemia): 1.92 µM
- TGI (RPMI-8226 leukemia): 3.33 µM
- GI50 ([…]-0 renal): 1.85 µM
- TGI (786-0 renal): 3.27 µM
- GI50 (SNB-75 CNS): 2.35 µM
- TGI (SNB-75 CNS): 3.82 µM
- GI50 (UACC-257 melanoma): 2.84 µM
- TGI (UACC-257 melanoma): 4.32 µM
- GI50 (DU-145 prostate): 2.09 µM
- TGI (DU-145 prostate): 3.54 µM
- GI50 (TK-10 renal): 1.99 µM
- TGI (TK-10 renal): 3.41 µM
- GI50 (MDA-MB-435 melanoma): 2.13 µM
- TGI (MDA-MB-435 melanoma): 3.57 µM
- GI50 (HCT-15 colon): 2.07 µM
- TGI (HCT-15 colon): 3.53 µM
- GI50 (NCI-H522 lung): 2.2 µM
- TGI (NCI-H522 lung): 3.66 µM
- GI50 (SF-295 CNS): 1.96 µM
- TGI (SF-295 CNS): 3.38 µM
- GI50 (HOP-62 NSCLC): 2.08 µM
- TGI (HOP-62 NSCLC): 3.52 µM
- GI50 (CAKI-1 renal): 1.9 µM
- TGI (CAKI-1 renal): 3.34 µM
- GI50 (A498 renal): 1.98 µM
- TGI (A498 renal): 3.41 µM
- GI50 (SN12C renal): 1.64 µM
- TGI (SN12C renal): 3.01 µM
- GI50 (HOP-92 NSCLC): 2.12 µM
- TGI (HOP-92 NSCLC): 3.57 µM
